In article PMC7264150 (Nature Communications, 2020):

Biological target: T1, Pl-TcdA1 (Photorhabdus luminescens, UniProt Q9RN43)
T1 construct: gene tcdA
Type: binding

CC(=O)N[C@H]1C(O)O[C@H](CO)[C@@H](O[C@@H]2O[C@H](CO)[C@H](O)[C@H](O)[C@H]2O[C@@H]2O[C@@H](C)[C@@H](O)[C@@H](O)[C@@H]2O)[C@@H]1O[C@@H]1O[C@@H](C)[C@@H](O)[C@@H](O)[C@@H]1O (stereo partly shown) [Lewis Y]
glycan microarray, AlexaFluor488-labelled toxin: tetrasaccharides Lewis Y and sialyl-Lewis X interacted strongly with Pl-TcdA1
